Laboratory results: ChEMBL document CHEMBL3112502, “The insulin secretory action of novel polycyclic guanidines: discovery through open innovation phenotypic screening, and exploration of structure-activity relationships” (Bioorg Med Chem Lett, 2014)
Active and inactive are the calls of the source. No cut-off for these calls is given here.

What was measured:
[1] = Stimulation of insulin secretion in rat INS-1E cells after 1 hr by alphaLISA assay in presence of 5 mM glucose relative to IBMX; format: functional
[2] = (§1) Stimulation of insulin secretion in rat INS-1E cells after 1 hr by alphaLISA assay in presence of 0.1 mM glucose; format: functional, cell-based
[3] = Stimulation of insulin secretion in rat INS-1E cells after 1 hr by alphaLISA assay in presence of 5 mM glucose; format: functional, cell-based
INS-1E = test: as §1; format: functional, cell-based
[4] = Stimulation of insulin secretion in rat INS-1E cells after 1 hr by alphaLISA assay in presence of 0.1 mM glucose relative to IBMX; format: functional
Pancreatic islet [5] = test: Stimulation of insulin secretion in rat pancreatic islets at 3 uM in presence of 11 mM glucose; format: functional
Pancreatic islet [6] = test: Stimulation of insulin secretion in rat pancreatic islets at 3 uM in presence of 3 mM glucose; format: functional
Pancreatic islet [7] = test: Stimulation of insulin secretion in rat pancreatic islets in presence of 11 mM glucose; format: functional

SMILES	Emax [1] [%]	EC50 [3] [nM]	Activity (INS-1E)	other results
N=C1N[C@@H](c2ccccc2)C[C@H]2CC[C@H](CCc3ccccc3)N12	34	1250		EC50 [2]: > 33 µM
N=C(N)N1C(CCc2ccccc2)CCC1Cc1ccccc1 (mixture of isomers)	56	5740	inactive	
N=C1NC(c2ccccc2)CCN1CCCc1ccccc1 (centres undefined)	39	4790	inactive	
Cc1cc(C)c(Nc2ccc(CC[C@H]3CC[C@@H]4C[C@H](c5ccccc5)NC(=N)N34)cc2)c(C)c1		> 33000	inactive	
COc1ccc(Cl)cc1C(=O)NCCc1ccc(S(=O)(=O)NC(=O)NC2CCCCC2)cc1 [GLYBURIDE]	50	3		Emax [4]: 17%; EC50 [2]: 0.007 µM
CCC[C@H]1CC[C@@H]2C[C@H](c3ccccc3)NC(=N)N12	55	11100	inactive	
N=C1N[C@@H](c2ccccc2)C[C@H]2CC[C@H](c3ccccc3)N12		> 33000	inactive	
N=C1N[C@@H](c2ccccc2)C[C@H]2CC[C@H](Cc3ccccc3)N12	52	4740	inactive	
N=C1N[C@@H](c2ccc(C(=O)O)cc2)C[C@H]2CC[C@H](CCc3ccccc3)N12		> 33000	inactive	
N=C1N[C@@H](c2ccc(F)cc2)C[C@H]2CC[C@H](CCc3ccccc3)N12	26	4040	inactive	
N=C1N[C@@H](c2ccccc2)C[C@H]2CCCN12 (mixture of isomers)		> 33000	inactive	
CC(=O)Nc1ccc([C@H]2C[C@H]3CC[C@H](CCc4ccccc4)N3C(=N)N2)cc1		> 33000	inactive	
N=C1N[C@@H](c2ccccc2)C[C@H]2CC[C@H](CCc3ccncc3)N12		> 33000	inactive	
N=C(N)N1C(CCc2ccccc2)CCC1CCc1ccccc1 (mixture of isomers)	29	4870	inactive	
N=C1N[C@@H](c2ccc(Br)cc2)C[C@H]2CC[C@H](CCc3ccccc3)N12	23	630	inactive	
O=C1N[C@@H](c2ccccc2)C[C@H]2CC[C@H](CCc3ccccc3)N12		> 33000	inactive	
N=C(N)N1C(CCc2ccccc2)CCC1Sc1ccccc1 (centres undefined)	62	1330	inactive	
N=C1N[C@@H](c2ccccc2Br)C[C@H]2CC[C@H](CCc3ccccc3)N12 (mixture of isomers)	52	670	inactive	
COc1cccc([C@H]2C[C@H]3CC[C@H](CCc4ccccc4)N3C(=N)N2)c1 (mixture of isomers)	21	760	inactive	
N=C(N)N1C(Sc2ccccc2)CCC1c1ccccc1 (mixture of isomers)	54	5030	inactive	

SMILES	Emax [1] [%]	EC50 [3] [nM]	Activity (INS-1E)	other results
Cc1cc(C)c(Nc2cccc(CC[C@H]3CC[C@@H]4C[C@H](c5ccccc5)NC(=N)N34)c2)c(C)c1		> 33000	inactive	
N=C1NCC[C@H]2CC[C@H](CCc3ccccc3)N12		> 33000	inactive	
Cc1ccccc1[C@H]1C[C@H]2CC[C@H](CCc3ccccc3)N2C(=N)N1	59	1010	inactive	Activity (Pancreatic islet [5]): Active; Activity (Pancreatic islet [6]): inactive
N=C1N[C@@H](c2ccccc2)C[C@H]2CC[C@H](CCc3cccc(Br)c3)N12	26	450	inactive	
CC(C)(C)OC(=O)/N=C1\N[C@@H](c2ccccc2)C[C@H]2CC[C@H](CCc3ccccc3)N12		> 33000	inactive	
C/C=C/[C@H]1C[C@H]2CC[C@H](CCc3ccccc3)N2C(=N)N1	21	1450		EC50 [2]: > 33 µM
N=C1N[C@@H](c2ccc(C(F)(F)F)cc2)C[C@H]2CC[C@H](CCc3ccccc3)N12		> 33000	inactive	
CN1C(=N)N2[C@@H](CCc3ccccc3)CC[C@@H]2C[C@@H]1c1ccccc1	29	670	inactive	
Cc1ccc([C@H]2C[C@H]3CC[C@H](CCc4ccccc4)N3C(=N)N2)cc1 (mixture of isomers)	40	1000	inactive	
N=C1N[C@@H](c2ccccc2)C[C@H]2CC[C@H](COc3ccccc3)N12		> 33000	inactive	
Cc1cc(C)c(Nc2ccccc2CC[C@H]2CC[C@@H]3C[C@H](c4ccccc4)NC(=N)N23)c(C)c1	54	1370	inactive	
N=C1N[C@@H](c2cccc(Br)c2)C[C@H]2CC[C@H](CCc3ccccc3)N12	22	1010	inactive	
N=C1N[C@@H](c2ccccc2)C[C@H]2CC[C@H](CCCc3ccccc3)N12 (mixture of isomers)	31	830	inactive	
C[C@@H]1[C@H]2CC[C@H](CCc3ccccc3)N2C(=N)N[C@H]1c1ccccc1	27	1300		EC50 [2]: > 33 µM; Activity (Pancreatic islet [7]): Active
N=C(NCc1ccccc1)N1CCCC1CCc1ccccc1 (centres undefined)	84	2470	inactive	
N=C1N[C@@H](C2CCCCC2)C[C@H]2CC[C@H](CCc3ccccc3)N12	40	750	inactive	
Cc1cccc([C@H]2C[C@H]3CC[C@H](CCc4ccccc4)N3C(=N)N2)c1 (mixture of isomers)	20	1100	inactive	
Cn1cc(CC[C@H]2CC[C@@H]3C[C@H](c4ccccc4)NC(=N)N23)cn1		> 33000	inactive	
N=C1N[C@@H](c2ccccc2)C[C@H]2CC[C@H](c3ccc(-c4ccccc4)cc3)N12		> 33000	inactive	
N=C1N[C@H](c2ccccc2)C[C@H]2CC[C@H](CCc3ccccc3)N12	21	2740		
